Assay results as given in patent publication US12528815B2, “5-amino-8-(4-pyridyl)-[1,2,4]triazolo[4,3-c]pyrimidin-3-one compounds for use against cancer” (Nxera Pharma UK Limited, priority 2020, dated 2026).

Tests used:
[1] = molecular target: T1, human adenosine A1 receptor (Homo sapiens, UniProt P30542); test: Inhibition binding assay, human adenosine A1 receptor membranes, [3H]DPCPX; conditions: 1 nM [3H]DPCPX, 25° C., 1 h; IC50 converted to Ki with Cheng-Prusoff; read-out: A1 pKi (converted)
T1 construct: expressed in transfected cells; host or cells: HEK293 cells infected with BacMam (the same paragraph also labels the preparation CHO-hA1)
T1 sequence (P30542 1-326): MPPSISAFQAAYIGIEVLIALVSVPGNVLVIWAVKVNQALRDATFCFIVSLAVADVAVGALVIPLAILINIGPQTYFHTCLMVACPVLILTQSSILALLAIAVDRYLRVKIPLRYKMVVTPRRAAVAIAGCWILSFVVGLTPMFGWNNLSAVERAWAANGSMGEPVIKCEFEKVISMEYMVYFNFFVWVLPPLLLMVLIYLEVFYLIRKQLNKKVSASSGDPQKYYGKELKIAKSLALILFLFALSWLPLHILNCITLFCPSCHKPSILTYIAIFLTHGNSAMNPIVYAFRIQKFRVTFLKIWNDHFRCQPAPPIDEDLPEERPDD
Experimental: (§1) Inhibition binding assays were performed using 0.2 μg of membranes prepared from HEK293 cells infected with BacMam human adenosine A2A receptor or 1.4 μg of membranes prepared from HEK293 cells infected with BacMam human adenosine A1 receptor. Membranes were incubated in 50 mM Tris-HCl (HEK293-hA2A; pH 7.4) or 50 mM Tris-HCl, 100 mM NaCl, 10 mM MgCl2 (CHO-hA1; pH 7.4) in the presence of varying concentrations of test compound and 1 nM [^3H]ZM241385 (HEK293-hA2A) or [^3H]DPCPX (CHO-hA1) at 25° C. for 1 h. The assay was then terminated by rapid filtration onto GF/B grade Unifilter plates using a TomTec cell harvester, followed by 5×0.5 ml washes with ddH2O. Nonspecific binding was defined in the presence of 1 μM CGS15943 (HEK293-hA2A) or 1 μM DPCPX (CHO-hA1). Bound radioactivity was determined by liquid scintillation counting and inhibition curves were analysed using a four-parameter logistic equation. IC50 values were converted to Ki values with the Cheng-Prusoff equation using a KD value derived from saturation binding studies.

[2] = molecular target: T2, human adenosine A2A receptor (Homo sapiens, UniProt P29274); test: Inhibition binding assay, human adenosine A2A receptor membranes, [3H]ZM241385; conditions: 1 nM [3H]ZM241385, HEK293-hA2A membranes, 25° C., 1 h; IC50 converted to Ki with Cheng-Prusoff; read-out: A2A pKi (converted)
T2 construct: expressed in transfected cells; host or cells: HEK293 cells infected with BacMam
Experimental: as §1

T2 sequence (P29274 whole entry): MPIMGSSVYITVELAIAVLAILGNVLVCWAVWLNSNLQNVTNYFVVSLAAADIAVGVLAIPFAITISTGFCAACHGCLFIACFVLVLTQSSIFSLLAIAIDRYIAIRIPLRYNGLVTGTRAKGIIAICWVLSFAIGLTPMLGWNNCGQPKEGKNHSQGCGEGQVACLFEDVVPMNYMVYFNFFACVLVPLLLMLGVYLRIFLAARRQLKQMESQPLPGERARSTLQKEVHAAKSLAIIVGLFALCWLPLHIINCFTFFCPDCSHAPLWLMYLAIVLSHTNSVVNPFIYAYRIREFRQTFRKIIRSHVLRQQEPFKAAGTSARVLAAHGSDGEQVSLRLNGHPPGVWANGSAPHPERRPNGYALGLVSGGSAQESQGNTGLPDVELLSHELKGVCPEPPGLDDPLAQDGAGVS

Compound | Ki [1] | Ki [2]
Cc1cc(-c2c(-c3ccccc3)nc(N)n3c(=O)n(CC4CCCOC4)nc23)cc(CO)n1 (single isomer, unassigned) [Example 2-92-iso-1, 5-amino-8-[2-(hydroxymethyl)-6-methyl-4-pyridyl]-7-phenyl-2-(tetrahydropyran-3-ylmethyl)-[1,2,4]triazolo[4,3-c]pyrimidin-3-one] | 251 nM | 2.51 nM
Cc1cc(-c2c(-c3ccccc3)nc(N)n3c(=O)n(CC4CCCOC4)nc23)cc(CO)n1 (single isomer, unassigned) [Example 2-92-iso-2, 5-amino-8-[2-(hydroxymethyl)-6-methyl-4-pyridyl]-7-phenyl-2-(tetrahydropyran-3-ylmethyl)-[1,2,4]triazolo[4,3-c]pyrimidin-3-one] | 316 nM | 1.26 nM
COc1ccc(Cn2nc3c(-c4cc(C)nc(C)c4)c(-c4ccccc4)nc(N)n3c2=O)cc1 [Example 1-3, 5-amino-8-(2,6-dimethyl-4-pyridyl)-2-[(4-methoxyphenyl)methyl]-7-phenyl-[1,2,4]triazolo[4,3-c]pyrimidin-3-one] | 25.1 nM | 6.31 nM
Cc1cc(-c2c(-c3ccccc3)nc(N)n3c(=O)n(Cc4cccnn4)nc23)cc(C)n1 [Example 1-5, 5-amino-8-(2,6-dimethyl-4-pyridyl)-7-phenyl-2-(pyridazin-3-ylmethyl)-[1,2,4]triazolo[4,3-c]pyrimidin-3-one] | 251 nM | 2.51 nM
COc1cccc(Cn2nc3c(-c4cc(C)nc(C)c4)c(-c4ccccc4)nc(N)n3c2=O)n1 [Example 1-6, 5-amino-8-(2,6-dimethyl-4-pyridyl)-2-[(6-methoxy-2-pyridyl)methyl]-7-phenyl-[1,2,4]triazolo[4,3-c]pyrimidin-3-one] | 200 nM | 0.794 nM
Cc1cc(-c2c(-c3ccccc3)nc(N)n3c(=O)n(Cc4ccc(F)c(=O)[nH]4)nc23)cc(C)n1 [Example 1-8, 5-amino-8-(2,6-dimethyl-4-pyridyl)-2-[(5-fluoro-6-oxo-1H-pyridin-2-yl)methyl]-7-phenyl-[1,2,4]triazolo[4,3-c]pyrimidin-3-one] | 316 nM | 25.1 nM
Cc1cc(-c2c(-c3ccccc3)nc(N)n3c(=O)n(Cc4ccc(F)c(=O)n4C)nc23)cc(C)n1 [Example 1-10, 5-amino-8-(2,6-dimethyl-4-pyridyl)-2-[(5-fluoro-1-methyl-6-oxo-2-pyridyl)methyl]-7-phenyl-[1,2,4]triazolo[4,3-c]pyrimidin-3-one] | 794 nM | 20 nM
Cc1cc(-c2c(-c3ccccc3)nc(N)n3c(=O)n([C@@H]4CCCc5ccc(F)cc54)nc23)cc(C)n1 [Example 1-14, (R)-5-amino-8-(2,6-dimethyl-4-pyridyl)-2-(7-fluorotetralin-1-yl)-7-phenyl-[1,2,4]triazolo[4,3-c]pyrimidin-3-one] | 20 nM | 3.16 nM
Cc1cc(-c2c(-c3ccccc3)nc(N)n3c(=O)n(C(C)c4cc(F)ccc4F)nc23)cc(C)n1 (stereo not drawn) [Example 1-15, 5-amino-2-[1-(2,5-difluorophenyl)ethyl]-8-(2,6-dimethyl-4-pyridyl)-7-phenyl-[1,2,4]triazolo[4,3-c]pyrimidin-3-one] | 79.4 nM | 1.58 nM
Cc1cc(-c2c(-c3ccccc3)nc(N)n3c(=O)n(Cc4cccnc4-n4cccn4)nc23)cc(C)n1 [Example 1-19, 5-amino-8-(2,6-dimethyl-4-pyridyl)-7-phenyl-2-[(2-pyrazol-1-yl-3-pyridyl)methyl]-[1,2,4]triazolo[4,3-c]pyrimidin-3-one] | 100 nM | 1.26 nM
Cc1cc(-c2c(-c3ccccc3)nc(N)n3c(=O)n(C(C)c4ccccn4)nc23)cc(C)n1 (stereo not drawn) [Example 1-20, 5-amino-8-(2,6-dimethyl-4-pyridyl)-7-phenyl-2-[1-(2-pyridyl)ethyl]-[1,2,4]triazolo[4,3-c]pyrimidin-3-one] | 316 nM | 12.6 nM
Cc1cc(-c2c(-c3ccccc3)nc(N)n3c(=O)n(Cc4c(F)cccc4F)nc23)cc(C)n1 [Example 1-23, 5-amino-2-[(2,6-difluorophenyl)methyl]-8-(2,6-dimethyl-4-pyridyl)-7-phenyl-[1,2,4]triazolo[4,3-c]pyrimidin-3-one] | 3.16 nM | 0.1 nM

Now from value to compound:

Ki [1] | Ki [2] | Compound
501 nM | 1.26 nM | Cc1cc(-c2c(-c3ccccc3)nc(N)n3c(=O)n(Cc4ccc(O)cc4)nc23)cc(C)n1 [Example 1-4, 5-amino-8-(2,6-dimethyl-4-pyridyl)-2-[(4-hydroxyphenyl)methyl]-7-phenyl-[1,2,4]triazolo[4,3-c]pyrimidin-3-one]
126 nM | 12.6 nM | Cc1cc(-c2c(-c3ccccc3)nc(N)n3c(=O)n(Cc4cccc(=O)[nH]4)nc23)cc(C)n1 [Example 1-9, 5-amino-8-(2,6-dimethyl-4-pyridyl)-2-[(6-oxo-1H-pyridin-2-yl)methyl]-7-phenyl-[1,2,4]triazolo[4,3-c]pyrimidin-3-one]
794 nM | 10 nM | Cc1cc(-c2c(-c3ccccc3)nc(N)n3c(=O)n(Cc4ccncc4)nc23)cc(C)n1 [Example 1-12, 5-amino-8-(2,6-dimethyl-4-pyridyl)-7-phenyl-2-(4-pyridylmethyl)-[1,2,4]triazolo[4,3-c]pyrimidin-3-one]
158 nM | 1.26 nM | Cc1cc(-c2c(-c3ccccc3)nc(N)n3c(=O)n(C4CSCc5ccccc54)nc23)cc(C)n1 (stereo not drawn) [Example 1-13, 5-amino-8-(2,6-dimethyl-4-pyridyl)-2-isothiochroman-4-yl-7-phenyl-[1,2,4]triazolo[4,3-c]pyrimidin-3-one]
1 nM | 0.251 nM | Cc1cc(-c2c(-c3ccccc3)nc(N)n3c(=O)n(Cc4ccccc4SC(F)F)nc23)cc(C)n1 [Example 1-16, 5-amino-2-[[2-(difluoromethylsulfanyl)phenyl]methyl]-8-(2,6-dimethyl-4-pyridyl)-7-phenyl-[1,2,4]triazolo[4,3-c]pyrimidin-3-one]
1 nM | 0.316 nM | Cc1cc(-c2c(-c3ccccc3)nc(N)n3c(=O)n(Cc4ccccc4C)nc23)cc(C)n1 [Example 1-17, 5-amino-8-(2,6-dimethyl-4-pyridyl)-2-(o-tolylmethyl)-7-phenyl-[1,2,4]triazolo[4,3-c]pyrimidin-3-one]
10 nM | 0.0794 nM | Cc1cc(-c2c(-c3ccccc3)nc(N)n3c(=O)n(Cc4ccc(F)cc4C)nc23)cc(C)n1 [Example 1-18, 5-amino-8-(2,6-dimethyl-4-pyridyl)-2-[(4-fluoro-2-methyl-phenyl)methyl]-7-phenyl-[1,2,4]triazolo[4,3-c]pyrimidin-3-one]
10 nM | 0.501 nM | Cc1cc(-c2c(-c3ccccc3)nc(N)n3c(=O)n(Cc4cccc(F)c4Cl)nc23)cc(C)n1 [Example 1-21, 5-amino-2-[(2-chloro-3-fluoro-phenyl)methyl]-8-(2,6-dimethyl-4-pyridyl)-7-phenyl-[1,2,4]triazolo[4,3-c]pyrimidin-3-one]
2 nM | 0.158 nM | Cc1cc(-c2c(-c3ccccc3)nc(N)n3c(=O)n(Cc4ccccc4OCC4CC4)nc23)cc(C)n1 [Example 1-22, 5-amino-2-[[2-(cyclopropylmethoxy)phenyl]methyl]-8-(2,6-dimethyl-4-pyridyl)-7-phenyl-[1,2,4]triazolo[4,3-c]pyrimidin-3-one]
